# According to US20190053492A1, “SUBSTITUTED PYRIDINE COMPOUNDS AS PESTICIDES” (Bayer CropScience Aktiengesellschaft, priority 2016, published 2019):
# Where two headings read alike, the source gives them in different places.
# Tests used:
# [1] = system: Spodoptera frugiperda; assay: Spodoptera frugiperda spray test; type: in vivo; settings: after 7 days, maize leaf discs; for pest or weed control at 100 g/ha / pest or weed control at 500 g/ha: Spodoptera frugiperda, foliar, 168 h, read-out: efficacy (caterpillars killed)
# Summary of the method: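 Maize leaf discs were sprayed with compound formulated in acetone/DMF and emulsifier-containing water, dried, then infested with Spodoptera frugiperda caterpillars. Percent kill was scored after 7 days, from 100% (all dead) to 0% (none dead).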
# [2] = log P by HPLC on reversed-phase column (C 18), EEC Directive 79/831 Annex V.A8; type: physicochemical; settings: 55° C.; for LOGP_HCOOH: log P (HCOOH); for chromatographic logP: reversed-phase HPLC column (C 18)
# Experimental: Temperature: 55° C. […] Called log P (HCOOH) in the table. […] Called log P (neutral) in the table.
# [3] = system: Ctenocephalides felis; assay: Ctenocephalides felis oral test; type: in vivo; settings: application rate 100 ppm in citrated cattle blood, after 2 days, adult cat fleas
# Experimental: Ctenocephalides felis—Oral Test Solvent: dimethyl sulphoxide To produce a suitable active ingredient formulation, 10 mg of active ingredient are mixed with 0.5 ml of dimethyl sulphoxide. Dilution with citrated cattle blood gives the desired concentration. About 20 unfed adult cat fleas (Ctenocephalides felis) are placed into a chamber which is closed at the top and bottom with gauze. A metal cylinder whose bottom end is closed with parafilm is placed onto the chamber. The cylinder contains the blood/active ingredient formulation, which can be imbibed by the fleas through the parafilm membrane. After 2 days, the kill in % is determined. 100% means that all of the fleas have been killed; 0% means that none of the fleas have been killed.
# [4] = system: Phaedon cochleariae; assay: Phaedon cochleariae spray test; type: in vivo; settings: after 7 days, Chinese cabbage leaf discs
# Summary of the method: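 Chinese cabbage leaf discs sprayed with compound in acetone/DMF and emulsifier-containing water, then infested with mustard beetle larvae once dry. Efficacy in % scored after 7 days (100% = all larvae killed, 0% = none).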
# [5] = acidic range at pH 2.7, 0.1% aqueous formic acid and acetonitrile, HPLC on reversed-phase column (C 18)
# [6] = log P, neutral range, HPLC on reversed-phase column (C 18)
# [7] = acidic range pH 2.7, 0.1% aqueous formic acid and acetonitrile, reversed-phase column (C 18)
# [8] = log P (neutral), HPLC reversed-phase column (C 18)
# [9] = pH 2.7, LC-MS acidic range, pH 2.7, 0.1% formic acid/acetonitrile, read-out: log P (acidic) / log P (HCOOH)
# [10] = pH 7.8, LC-MS neutral range, pH 7.8, ammonium hydrogencarbonate/acetonitrile, read-out: log P (neutral)
# [11] = Phaedon cochleariae, foliar, 168 h, application rate 100 g/ha, read-out: efficacy (beetle larvae killed)
SMILES,"LOGP_HCOOH [2, 5]","LOGP_NEUTRAL [2, 6]","LOGP_HCOOH [2, 7]",efficacy (caterpillars killed) ([1]; application rate 100 g/ha) [%],efficacy (caterpillars killed) ([1]; application rate 500 g/ha) [%],efficacy (kill in %) [3] [%],efficacy (beetle larvae killed) ([4]; application rate 100 g/ha) [%],efficacy (beetle larvae killed) ([4]; application rate 500 g/ha) [%],other results
CC(C)C(=O)Nc1cc(-c2ccc(OC(F)(F)F)cc2)cc(C(=O)NCc2cc(F)c(C#N)cc2F)n1 [Example I-110],4.33,4.19,,100,100,100,100,100,
O=C(Cc1ccc(C(F)(F)F)cc1)Nc1cc(-c2ccc(C(F)(F)F)cc2)cc(C(=O)NC2CC2)n1 [Example I-088],,5.54,4.37,100,83,90,,,
"COC(=O)N(Cc1ccc(C#N)cc1)C(=O)c1cc(-c2ccc(OC(F)(F)F)cc2)cc(N(C(=O)OC)C(=O)C2CC2)n1 [Example I-232, Methyl (4-cyanobenzyl)({6-[(cyclopropylcarbonyl)(methoxycarbonyl)amino]-4-[4-(trifluoromethoxy)phenyl]pyridin-2-yl}carbonyl)carbamate]",4.30,4.31,,,,,,,"pest or weed control at 100 g/ha ([1]; application rate 100 g/ha): 100%; pest or weed control at 500 g/ha ([1]; application rate 500 g/ha): 100%; chromatographic logP [2, 9]: 4.3; chromatographic logP [2, 10]: 4.31; pest or weed control at 100 ppm ([3]; Ctenocephalides felis, po, 48 h, read-out: efficacy (kill in %)): 100%"
O=C(NCC1CCCCC1)c1cc(-c2ccc(OC(F)(F)F)cc2)cc(NC(=O)C2CC2)n1 [Example I-167],5.11,4.89,,,,90,,,
"CN(C(=O)C1CC1)c1cc(-c2ccc(OC(F)(F)F)cc2)cc(C(=O)NCc2ccc(C#N)cc2)n1 [Example I-215, N-(4-Cyanobenzyl)-6-[(cyclopropylcarbonyl)(methyl)amino]-4-[4-(trifluoromethoxy)phenyl]pyridine-2-carboxamide]",3.85,3.84,,,,,,,"pest or weed control at 100 g/ha ([1]; application rate 100 g/ha): 100%; pest or weed control at 500 g/ha ([1]; application rate 500 g/ha): 83%; chromatographic logP [2, 9]: 3.85; chromatographic logP [2, 10]: 3.84; pest or weed control at 100 g/ha [4, 11]: 100%"
CC(C)NC(=O)c1cc(-c2ccc(C(F)(F)F)cc2)cc(NC(=O)C2CC2)n1 [Example I-018],,3.68,2.65,83,100,,,100,
O=C(NC1CC1)c1cc(-c2ccc(I)cc2)cc(NC(=O)C2CC2)n1 [Example I-035],,3.39,3.48,,100,,,100,
O=C(NCc1ccccn1)c1cc(-c2ccc(C(F)(F)F)cc2)cc(NC(=O)C2CC2)n1 [Example I-007],,2.75,3.19,,83,,,100,
"O=C(NC(=O)C1CC1)c1cc(-c2ccc(C(F)(F)C(F)(F)F)c(F)c2)cc(NC(=O)C2CC2)n1 [Example I-264, N-(Cyclopropylcarbonyl)-6-[(cyclopropylcarbonyl)amino]-4-[3-fluoro-4-(pentafluoroethyl)-phenyl]pyridine-2-carboxamide]",,,4.62,,,,,,"pest or weed control at 100 g/ha ([1]; application rate 100 g/ha): 100%; pest or weed control at 500 g/ha ([1]; application rate 500 g/ha): 100%; LOGP_NEUTRAL [2, 8]: 4.53; chromatographic logP [2, 9]: 4.62; chromatographic logP [2, 10]: 4.53; pest or weed control at 100 g/ha [4, 11]: 100%; pest or weed control at 500 g/ha ([4]; Phaedon cochleariae, foliar, 168 h, application rate 500 g/ha, read-out: efficacy (beetle larvae killed)): 100%"
CC(C)(CS(C)(=O)=O)NC(=O)c1cc(-c2ccc(C(F)(F)C(F)(F)F)c(F)c2)cc(NC(=O)C2CC2)n1 [Example I-253],,,3.96,100,100,,100,100,"LOGP_NEUTRAL [2, 8]: 3.91"

# Now from value to molecule, other results behind:
"LOGP_HCOOH [2, 5]","LOGP_NEUTRAL [2, 6]","LOGP_HCOOH [2, 7]",SMILES,efficacy (caterpillars killed) ([1]; application rate 100 g/ha) [%],efficacy (caterpillars killed) ([1]; application rate 500 g/ha) [%],efficacy (kill in %) [3] [%],efficacy (beetle larvae killed) ([4]; application rate 100 g/ha) [%],efficacy (beetle larvae killed) ([4]; application rate 500 g/ha) [%],other results
4.64,,,O=C(NCc1ccc(F)c(C(F)(F)F)c1)c1cc(-c2ccc(OC(F)(F)F)cc2)cc(NC(=O)C2CC2)n1 [Example I-226],83,100,100,,100,
4.51,4.41,,N#Cc1ccc(CNC(=O)c2cc(-c3ccc(C(F)(C(F)(F)F)C(F)(F)F)cc3)cc(NC(=O)C3CC3)n2)cc1 [Example I-150],100,100,95,,,
,,3.21,CCONC(=O)c1cc(-c2ccc(OC(F)(F)F)cc2)cc(NC(=O)C2CC2)n1 [Example I-235],,,95,,100,"LOGP_NEUTRAL [2, 8]: 3.14"
3.84,,,CC(C)NC(=O)c1cc(-c2ccc(OC(F)(F)F)cc2)cc(NC(=O)C2CC2)n1 [Example I-129],100,100,,100,100,
3.55,3.00,,N#Cc1ccc(CNC(=O)c2cc(-c3ccc(CC(F)(F)F)cc3)cc(NC(=O)C3CC3)n2)cc1 [Example I-144],100,100,,100,100,
,,3.72,N#Cc1ccc(ONC(=O)c2cc(-c3ccc(OC(F)(F)F)cc3)cc(NC(=O)C3CC3)n2)cc1 [Example I-239],,83,,83,,"LOGP_NEUTRAL [2, 8]: 3.13"
3.45,3.35,,NC(=S)c1ccc(CNC(=O)c2cc(-c3ccc(OC(F)(F)F)cc3)cc(NC(=O)C3CC3)n2)cc1 [Example I-214],100,100,,83,,
,3.87,4.00,N#Cc1cc(F)c(CNC(=O)c2cc(-c3ccc(C(F)(F)F)cc3)cc(NC(=O)C3CC3)n2)c(F)c1 [Example I-068],100,100,,100,100,
